# “Also recorded” adds a separate entry of the source.
# What was measured:
# [1] = test system: Abca4^−/−Rdh8^−/− mice; experiment: Toxicity in treated Abca4−/−Rdh8−/− mice (Table 2); assay type: in vivo; conditions: 4-week-old Abca4−/−Rdh8−/− mice, oral gavage
# Protocol: (§1) Abca4^−/−Rdh8^−/− double knockout mice were generated as previously described. Mice were housed in the animal facility at the School of Medicine, Case Western Reserve University, where they were maintained under either complete darkness or in a 12-h light (˜300 lux) and 12-h dark cycle. All tested primary amines were suspended in 100 μl of soybean oil with less than 10% (v/v) DMSO and were administered by oral gavage with a 22-gauge feeding needle. Experimental manipulations in the dark were done under dim red light transmitted through a Kodak No. 1 safelight filter (transmittance >560 nm). All animal procedures and experiments were approved by the Case Western Reserve University Animal Care Committees and conformed to recommendations of the American Veterinary Medical Association Panel on Euthanasia and the Association of Research for Vision and Ophthalmology.
# (§2) For practical reasons, only eight of these leading compounds (QEA-B-001-NH2, B-002-NH2, C-001-NH2, C-003-NH2, C006-NH2, E-002-NH2, TEA-B-002-NH2, and C00-2-NH2) along with retinylamine as a control were selected for further testing in Abca4^−/−Rdh8^−/− mice, an animal model for light-induced retinal degeneration (Table 2). Additionally, two novel amines with moderate inhibition of RPE65 (QEA-A-006-NH2 and QEA-B-003-NI 12) and one with strong inhibition (QEA-A-005-NH2) were added to the first test group for comparison. Mice were gavaged with 1 mg of a test compound and then kept in the dark for 24 h prior to being exposed to bright light (˜10,000 lux) for 1 h. Retinal damage was assessed with OCT that measured the thickness of the outer nuclear layer and by quantification of tissue 11-cis retinal levels. An example is shown for imaging results in FIG. 4A and for 11-cis-retinal quantification in FIG. 4B. Additionally, extracts of livers obtained from treated mice were analyzed by HPLC to estimate the amounts of corresponding amides (FIG. 4C).
# [2] = molecular target: T1, RPE65 (Bos taurus, UniProt Q28175); experiment: Retinoid isomerase activity assay (11-cis-retinol production in RPE microsomes); assay type: biochemical, Bovine; conditions: for IC50: primary amine, decline in 11-cis-retinol production in RPE microsomes, read-out: Inhibition of RPE65
# T1 construct: from tissue; host or cells: bovine retinal pigment epithelium (RPE) microsomes
# T1 sequence (Q28175 whole entry): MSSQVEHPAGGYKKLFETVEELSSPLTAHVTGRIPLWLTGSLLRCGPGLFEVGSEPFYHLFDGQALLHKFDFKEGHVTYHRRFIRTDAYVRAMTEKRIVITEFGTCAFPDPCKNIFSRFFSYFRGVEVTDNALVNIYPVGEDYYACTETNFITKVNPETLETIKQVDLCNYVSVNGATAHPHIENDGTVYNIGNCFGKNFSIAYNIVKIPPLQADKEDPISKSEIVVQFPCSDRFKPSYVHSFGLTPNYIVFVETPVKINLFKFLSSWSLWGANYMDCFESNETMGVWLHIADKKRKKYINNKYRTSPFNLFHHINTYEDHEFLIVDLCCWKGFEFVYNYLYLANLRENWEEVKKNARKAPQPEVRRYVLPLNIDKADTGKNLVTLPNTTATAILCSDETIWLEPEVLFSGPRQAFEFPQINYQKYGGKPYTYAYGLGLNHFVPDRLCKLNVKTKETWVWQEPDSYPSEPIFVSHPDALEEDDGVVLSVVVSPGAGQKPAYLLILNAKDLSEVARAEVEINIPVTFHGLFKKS
# Protocol: Bovine RPE microsomes were isolated from RPE homogenates by differential centrifugation as previously described. The resulting microsomal precipitate was resuspended in 10 mM Bis-Tris propane/HCl buffer, pH 7.4, to achieve a total protein concentration of […]. Then the mixture was placed in a quartz cuvette and irradiated for 6 min at 4° C. with a ChromatoUVE transilluminator (model TM-15; UVP) to eliminate residual retinoids. After irradiation, DTT was added to the RPE microsomal mixture to achieve a final concentration of 5 mM.
# […] The resulting mixture was pre incubated at room temperature for 5 min. Then 1 μl of all-trans-retinol (in DMF, final concentration 20 μM) was added. The resulting mixture was incubated at 37° C. for 15 min to 2 h. The reaction was quenched by adding 300 μl of methanol, and products were extracted with 300 μl of hexanes. Production of 11-cis-retinol was quantified by normal phase HPLC with 10% (v/v) ethyl acetate in hexanes as the eluent at a flow rate of 1.4 ml·min^−1. Retinoids were detected by monitoring their absorbance at 325 nm and quantified based on a standard curve representing the relationship between the amount of 11-cis-retinol and the area under the corresponding chromatographic peak.
# Primary amines of compounds derived from the aldehydes were subsequently tested for their ability to inhibit the RPE65-dependent retinoid isomerization reaction in dose- and time dependent reactions as exemplified by QEB-B-001 (FIG. 3B). Amines were incubated with RPE microsomes in the presence of all-trans-retinol and the 11-cis-retinoid binding protein, CRALBP.
# Progress of the enzymatic reaction was monitored by HPLC separation of retinoids and quantification of 11-cis-retinol with a decrease of 11-cis-retinol production reflecting inhibition of RPE65 by a tested amine. […] This moderate inhibition could be enhanced by shortening the polyene chain length (TEA amines) or diminished by introducing an extra positive charge into the tested compounds (QEA-G amines).
# [3] = test system: Abca4^−/−Rdh8^−/− mice; experiment: Light-induced acute retinal degeneration in Abca4−/−Rdh8−/− mice (OCT, 11-cis-retinal, ERG); assay type: in vivo; conditions: for OCT imaging of the retina: 3 d after bleaching; for average ONL thickness: OCT 3 d after bleaching
# Protocol: as §1
# After dark adaptation for 24 h, 4-week-old male or female Abca4^−/−Rdh8^−/− mice with pupils dilated by 1% tropicamide were exposed to fluorescent light (10,000 lx; 150 W spiral lamp, Commercial Electric) for 1 h in a white paper bucket (Papersmith), and then kept in the dark for an additional 3 d. Development of retinal degeneration was then examined by ultra-high resolution spectral-domain OCT (SDOCT; Bioptigen) and ERGs as previously described.
# Then animals were euthanized and their eyes were collected and homogenized in 10 mM sodium phosphate buffer, pH 7.4, containing 50% methanol (v/v) and 40 mM hydroxylamine. The resulting mixture was extracted with 4 ml of hexanes. Extracts were dried in vacuo, reconstituted in 300 μl of hexanes and 100 μl of the extract was injected into an HPLC for analysis with 10% (v/v) ethyl acetate in hexanes.
# as §2
# Once the time course of retinylamine's inhibitory effect was established, we investigated the correlation between the level of inhibition and the protective effect on the retina. Four week old Abca4^−/−Rdh8^−/− mice were gavaged with 0.1, 0.2, and 0.5 mg of retinylamine, respectively, and kept in the dark for 24 h. Mice then were bleached with 10,000 lux bright light for 1 h. Measured as described above, the recovery of visual chromophore was inhibited by about 40%, 80%, and 95%, respectively by these tested drug doses (FIGS. 5B and 5C). Bleached mice were kept in the dark for 3 d, and then imaged by OCT (FIGS. 6A and 6B). […] The average ONL thickness in the latter group of mice was 51.1±5.8 μm, well within the range of healthy retinas. […] Their average ONL thickness was 34.4±17.4 μm. […] In an equivalent experiment, mice were kept in the dark for 7 days prior to quantification of visual chromophore levels. (Amounts of 11-cis-retinal reflect the concentration of rhodopsin and thus can be used to verify the health of photoreceptor cells).
# [4] = 0.1 mg, dark 7 days after bleaching
# [5] = 0.2 mg, dark 7 days after bleaching
SMILES,Toxicity [1],IC50 [2],"protection against retinal degeneration ([3]; 0.1 mg dose, bright light exposure)",OCT imaging of the retina ([3]; 0.1 mg),"11-cis-retinal levels [3, 4]","ERG responses [3, 4]",OCT imaging of the retina ([3]; 0.2 mg),average ONL thickness ([3]; 0.2 mg),"11-cis-retinal levels [3, 5]","ERG scotopic a wave responses [3, 5]",OCT imaging of the retina ([3]; 0.5 mg),average ONL thickness ([3]; 0.5 mg),"ERG scotopic a wave responses ([3]; 0.5 mg, dark 7 days after bleaching)",inhibition of RPE65 [2],"prevention of light-induced retinal degeneration ([3]; gavaged with 1 mg, dark 24 h, ~10,000 lux 1 h, OCT)"
"CC1=C(/C=C/C(C)=C/C=C/C(C)=C/CN)C(C)(C)CCC1 [QEA-A-001-NH2, retinylamine]",None,< 10 µM,failed to protect,severe retinal degeneration,323±48 pmol/eye,attenuated ERG responses,partially protected,34.4±17.4 μm,445±37 pmol/eye,same ERG scotopic a wave responses as unbleached control mice,clear intact ONL image,51.1±5.8 μm,same ERG scotopic a wave responses as unbleached control mice,,
CC(/C=C/C=C(/C=C/C1=CCCCC1)C(C)(C)C)=C\CN [QEA-B-001-NH2],Yes,> 200 µM,,,,,,,,,,,,modest or non-inhibitor; also recorded: did not inhibit,inability to prevent

# — patent publication US10363231B2, “Compounds and methods of treating ocular disorders” (CASE WESTERN RESERVE UNIVERSITY, priority 2014, dated 2019)
